Measurements as given in ChEMBL document CHEMBL3045457, “Synthesis and insecticidal activity of N-substituted (1,3-thiazole)alkyl sulfoximine derivatives” (2008).

test system: Myzus persicae; assay: Insecticidal activity against Myzus persicae (green peach aphid) in horsebean shoot assessed as mortality at 10 mg/l at 25 +/-1 degC treated for 2 secs measured after 16 hr; format: functional

Row | Structure (SMILES) | mortality at 10 µg/mL [%]
1 | CS(=O)(Cc1ccc(Cl)nc1)=NC#N (configuration not stated) | 100
2 | CS(=O)(Cc1cnc(Br)s1)=NC#N (configuration not stated) | 93
3 | CCOc1nc(C(F)(F)F)c(CS(C)(=O)=NC#N)s1 (configuration not stated) | 68
4 | Cc1nc(Cl)sc1CS(C)(=O)=NC#N (configuration not stated) | 0
5 | CS(=O)(Cc1cnc(Cl)s1)=NC#N (configuration not stated) | 75
6 | CS(=O)(Cc1sc(Cl)nc1C(F)(F)F)=NC#N (configuration not stated) | 100
7 | CS(=O)(Cc1sc(Br)nc1C(F)(F)F)=NC#N (configuration not stated) | 48
